The target of experiment [1] is human serum albumin (HSA) (Homo sapiens, UniProt P02768). The experiment in a line: FIDA binding to human serum albumin.
Procedure: Flow-induced dispersion analysis (FIDA).
FIDA was carried out using a fluorescently labelled (AF488-NHS) mPD5 analogue, and
(100 nM), using the standard protocol recommended by the manufacturer, in short, mPD5 and
sample was injected into the capillary followed by a buffer injection. The diffusion of the
curve smoothing. Resulting hydrodynamic radius was plotted using GraphPad Prism 8.3.
Experiment [2] relates to mice, CFA model of inflammatory pain. The experiment can be described thus: CFA model, marble-burying test. Type of experiment: in vivo, mouse. As for the experimental part:
Induction of inflammatory pain (CFA model).
Injury was induced on the right hind paw, whereas the contralateral left hind paw was used as internal control of the C57BL/6J male and female mice (Janvier, France). The inflammatory pain was induced by injection of 50 μL undiluted Complete Freund’s Adjuvant (CFA) (F5881, Sigma) unilaterally into the intraplantar surface of the right hind paw, whereas control mice were injected with the same amount of 0.9 % saline (B. Braun, Germany). All intraplantar injections were performed with an insulin needle (0.3 mL BD Micro-Fine) while the animal was under isoflurane anaesthesia (2%) for maximum 60 seconds. Von Frey was applied up to 11 days after unilateral CFA injection depending on the experiment. […]
For the first experiment with sustained administration of mPD5 (Figure 7C), the mice underwent a baseline von Frey reading as described in the “Mechanically-evoked pain (von Frey).”-section and SNI surgery as described in “Induction of neuropathic pain (SNI model).”-section. […] At 4,5 hours after the 10 μmol/kg mPD5 injection paw withdrawal threshold was measured again followed by a s.c. injection of 2 μmol/kg mPD5 in all animals. The PWT was measured again at 6 hours +7 hours + 8 hours + 9 hours + 10 hours + 11 hours + 22 hours + 23 hours + 25 hours + 27 hours + 49 hours + 121 hours after the initial 10 μmol/kg mPD5 injection performed on day 125. […]

Several values for one entry are separate records, joined by “and”; a condition that tells them apart may be missing. Equal values may be shown once.

human serum albumin (HSA), sequence (P02768 25-609): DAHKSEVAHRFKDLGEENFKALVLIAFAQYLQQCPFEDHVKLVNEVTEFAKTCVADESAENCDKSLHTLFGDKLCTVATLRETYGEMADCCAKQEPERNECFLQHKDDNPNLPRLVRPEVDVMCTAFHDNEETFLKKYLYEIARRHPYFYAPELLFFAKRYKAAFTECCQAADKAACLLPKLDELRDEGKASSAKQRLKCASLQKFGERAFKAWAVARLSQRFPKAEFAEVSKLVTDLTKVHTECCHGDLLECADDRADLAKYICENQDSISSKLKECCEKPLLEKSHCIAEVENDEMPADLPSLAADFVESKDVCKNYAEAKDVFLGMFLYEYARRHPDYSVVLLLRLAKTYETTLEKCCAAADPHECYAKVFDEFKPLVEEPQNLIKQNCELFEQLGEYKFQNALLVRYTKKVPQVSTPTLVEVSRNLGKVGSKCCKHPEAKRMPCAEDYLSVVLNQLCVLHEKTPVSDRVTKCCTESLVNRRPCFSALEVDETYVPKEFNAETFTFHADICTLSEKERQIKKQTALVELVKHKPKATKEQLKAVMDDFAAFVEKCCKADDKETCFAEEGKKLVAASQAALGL

As to `CCCCCCCCCCCCCC(=O)N(CCOCCOCCC(=O)N[C@@H](Cc1c[nH]cn1)C(=O)N[C@@H](Cc1c[nH]c2ccccc12)C(=O)N[C@@H](CC(C)C)C(=O)N[C@@H](CCCCN)C(=O)N[C@H](C(=O)O)C(C)C)CCOCCOCCC(=O)N[C@@H](Cc1c[nH]cn1)C(=O)N[C@@H](Cc1c[nH]c2ccccc12)C(=O)N[C@@H](CC(C)C)C(=O)N[C@@H](CCCCN)C(=O)N[C@H](C(=O)O)C(C)C` [mPD5, myristoyl-NPEG4-(HWLKV)2], the “HSA species bound, from RH” value in experiment [1] is listed as “binds to dimeric HSA”. Further, the “effect on CFA-induced decrease in marble burying” value in experiment [2] (10 μmol/kg, to the level of the naive mice) is “reverted significantly”. In addition, the “marbles buried, individual mice” value in experiment [2] (1 hour after s.c. 10 μmol/kg) is 6 and 9 and 10 and 11 and 7 and 4 and 5.
